Marks after values point to notes of the source that are not given here.

This is an account of results in US20110136751A1, “Use of Polyphenols in the Treatment of Cancer” (Green Molecular, priority 2009, published 2011).

One series concerns NF-κB p50/65. The series is described as follows: NF-κB DNA binding ELISA in HT-29 nuclear extracts. The class given is cell-based, human. As to conditions: HT-29 cells; p65 siRNA transfection or 10 μg DHMEQ/ml, 2 h after removing the inhibitor. The procedure:
HT-29 cells were cultured and treated with PFs as indicated in the caption to FIG. 1. (A) NF-κB binding to DNA (measured 3 h after the last PF addition). Recombinant human TNFα (0.5 nM, Sigma, St. Louis, Mo.) was added 6 h before the last PF addition. IκBα (B) and P-IκBα (C) analysis by western blot (lane 1, TNFα; lane 2, control; lane 3, […]). Relative densitometric intensities for protein bands from western blots of IκBα and P-IκBα) were normalized to β-actin (black bar, TNFα; white bar, control; grey bar, […]). […] Transfection of siRNA was performed as explained under “Materials and Methods”. (A) western blot analysis of p65 in cells transfected with p65 siRNA, or NS siRNA. For comparison NF-κB binding to DNA (B) and bcl-2 expression (RT-PCR) (C) were determined in HT-29 cells transfected with p65 siRNA or treated with dehydroxymethylepoxyquinomicin (DHMEQ). […] Nuclear extract were prepared as previously described (18). An enzyme linked immunosorbent assay (ELISA) was performed in line with the manufacturer's protocol for a commercial kit (Chemiluminiscent NF-κB p50/65 Transcription Factor Assay, Oxford Biomedical Research, Oxford, Mich.). […] The DNA bound NF-κB is selectively recognized by the primary antibody, which, in turn, is detected by the secondary antibodyalkaline phosphatase conjugate. […]

In series [1] the test system is bcl-2. The experiment in a line: bcl-2 expression (RT-PCR) in cultured HT-29 cells. As to conditions: p65 siRNA transfection or 10 μg DHMEQ/ml, 12 h after removing the inhibitor. The class given is cell-based, human. Here is the method:
Transfection of siRNA was performed as explained under “Materials and Methods”. (A) western blot analysis of p65 in cells transfected with p65 siRNA, or NS siRNA. For comparison NF-κB binding to DNA (B) and bcl-2 expression (RT-PCR) (C) were determined in HT-29 cells transfected with p65 siRNA or treated with dehydroxymethylepoxyquinomicin (DHMEQ). For this purpose cultured HT-29 cells (24 h after seeding) were incubated in the absence or in the presence of 10 μg DHMEQ/ml, and NF-κB activation and bcl-2 expression were measured 2 h and 12 h, respectively, after removing the inhibitor.
Total RNA was isolated using the trizol kit from Invitrogen and following manufacturer's instructions. cDNA was obtained using a random hexamer primer and a MultiScribe Reverse Transcriptase kit as described by the manufacturer (TaqMan RT Reagents, Applied Biosystems, Foster City, Calif.). […]
Real-time quantitation of the mRNA relative to GAPDH was performed with a SYBR Green I assay, and a iCycler detection system (Biorad, Hercules, Calif.). […] The increase in fluorescence was measured in real time during the extension step. The threshold cycle (CT) was determined, and then the relative gene expression was expressed as: fold change=2^−Δ(ΔCT), where ΔCT=CT target−CT GAPDH, and Δ (ΔCT)=ΔCT treated−ΔCT control. […]

The test system of a further series is HT-29 xenografts. The series is described as follows: HT-29 xenograft growth. Format: in vivo, nu/nu nude mice. As to conditions: Table 3B; HT-29; 30 days after inoculation. Here is the method: Tumor growth was measured during a 30-day period. Tumor volume, one week after inoculation and before PF administration, was of 56+15 mm3. A. […] B. Growth profile of control ([…]) and t-PTER- and QUER (∘) (20 mg of each PF/kg)-treated HT-29-bearing mice. Data are means±S.D. of 18-20 mice per group. The significant test refers, for all groups, to the comparison between PTER and/or QUER and controls (treated with physiological saline) (*P<0.01). For HT-29 cancer cell xenograft experiments, female nu/nu nude mice (ages 6 to 8 weeks; […] Tumor volume was calculated based on two dimensions, measured using calipers, and was expressed in cubic millimeters according to the formula: […] For histological analysis the surgical and xenograft tissue samples were fixed in 4% formaldehyde, paraffin embedded, and stained with hematoxilin & eosin and safran. […] This study was conducted in compliance with international laws and policies (EEC Directive 86/609, OJ L 358. 1, Dec. 12, 1987; and NIH Guide for the Care and Use of Laboratory Animals, NIH Publ. No. 85-23, 1985). X rays were administered using a […] SL75 linear accelerator from Philips. For this purpose each mouse was anesthetized with nembutal (50 mg/kg i.p.), and fixed on a Perspex platform.

The test system of series [2] is HT-29/Tet-bcl-2 xenografts. The experiment in a line: HT-29/Tet-bcl-2 xenograft growth. Format: in vivo, mice. As to conditions: Table 3B, 30 days after inoculation. Here is the method: For HT-29 cancer cell xenograft experiments, female nu/nu nude mice (ages 6 to 8 weeks; Charles Rivers Laboratories, Wilmington, Mass.) were inoculated s.c. with 5×10^6 HT-29 or HT-29-GFP cells per mouse. Tumor volume was calculated based on two dimensions, measured using calipers, and was expressed in cubic millimeters according to the formula: V=0.5a×b2, where a and b are the long and the short diameters of the tumor, respectively. For histological analysis the surgical and xenograft tissue samples were fixed in 4% formaldehyde, paraffin embedded, and stained with hematoxilin & eosin and safran. Mice were monitored for at least 30 days after inoculation, and tumor measurements were taken on day 5, 10, 15, 20, 25, and 30. This study was conducted in compliance with international laws and policies (EEC Directive 86/609, OJ L 358. 1, Dec. 12, 1987; and NIH Guide for the Care and Use of Laboratory Animals, NIH Publ. No. 85-23, 1985). […]
(§1) The Tet-off gene expression system (Clontech, Palo Alto, Calif.) was used, as previously reported (17), to insert the human bcl-2 gene and for transfection into HT-29 cells following manufacturer's instructions. Bcl-2 protein was quantitated in the soluble cytosolic fraction by enzyme immunoassay (17) using a monoclonal antibody-based assay from Sigma (one unit of Bcl-2 was defined as the amount of Bcl-2 protein in 1000 non-transfected HT-29 cells).

A further series relates to SOD1. The series is described as follows: SOD activity in xenograft samples. The class given is in vivo, human. As to conditions: single treatment (PQ or SOD2-AS). The procedure: (§2) Tumor tissue was homogenized in 0.1M phosphate buffer (pH 7.2) at 4° C.
(§3) Superoxide dismutase (SOD) activity was measured as described by Flohé and Otting (14), using 2 mM cyanide in the assay medium to distinguish mangano-type enzyme (SOD2) from the cuprozinc type (SOD1).

Another series concerns SOD2. The series is described as follows: SOD activity in xenograft samples. Format: in vivo, human. Here is the method:
as §2, §3
A general note: A xenograft is tissue or cells of one species grown in another, often human tumour cells in immunodeficient mice.

The test system of series [3] is bcl-2. The experiment in a line: Bcl-2 protein enzyme immunoassay in xenograft samples. The class given is in vivo, human. As to conditions: single treatment (PQ or SOD2-AS).
Source text: as §1

Take `O=C(NC1=CC(=O)[C@H]2O[C@H]2[C@H]1O)c1ccccc1O` [DHMEQ, dehydroxymethylepoxyquinomicin]: the “NF-κB binding to DNA” value in the series with NF-κB p50/65 is “significant decrease”. Moreover, the bcl-2 expression result with bcl-2 [1] is recorded as “significant decrease”.

On to “SOD2-AS: Fully phosphorothioated 21-mer human SOD2 antisense oligodeoxynucleotide, 5′-GGAACCUCACAUCAACGCGCA-3′ (DNA, all phosphorothioate, methylation of C and T or U not given here)”, for which the Tumor volume is reported as 2337 ± 266^b mm^3 in the series on HT-29 xenografts and 2942 ± 387^ab mm^3 in series [2]. The SOD1 activity in the series on SOD1 (HT-29/tet-Bcl-2 xenograft) amounted to 6.3 ± 0.48 Units/mg protein; in the series on SOD1 (HT-29 xenograft) it was 5.77 ± 0.62 Units/mg protein. Also, the SOD2 activity in the series on SOD2 (HT-29/tet-Bcl-2 xenograft, single treatment (PQ or SOD2-AS)) was 0.33 ± 0.12 Units/mg protein; in the series with SOD2 (HT-29 xenograft, single treatment (PQ 20 mg each/kg or SOD2-AS 5 mg/kg each 3 days)), 0.27 ± 0.056^b Units/mg protein. Besides, the Bcl-2 levels is 81 ± 9^a Units/mg protein in the series on bcl-2 [3] (HT-29/tet-Bcl-2 xenograft) and 19 ± 3 Units/mg protein in the series on bcl-2 [3] (HT-29 xenograft).
